Results on 20 compounds are retold here after US10125134B2 (Mirati Therapeutics, Inc., priority 2016, dated 2018).

Assay [1] has as its target KRas G12C (Homo sapiens, UniProt P01116, C118S/C51S/C80L/G12C). In words: KRas G12C Modification Assay (LCMS detection of covalent adduct). It is filed as binding. In short, it runs like this: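 Covalent modification was read by reverse-phase LC/MS of intact protein after compound exposure, each reaction stopped at its time point with 25 mM acetic acid. Unmodified-protein signal, taken as percent of total, was normalised to untreated protein and reported as POC.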

Assay [2] concerns NCI-H358 cells (express KRas G12C), Phospho-ERK. The assay is described as follows: Cellular inhibition of KRas G12C: Phospho-ERK in NCI-H358 cells. The note with it: Homo sapiens. It is filed as cell-based. The method in brief:
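IC50 derived by 4-parameter fit of GAPDH-normalized pERK(Thr202/Tyr204) signal, as percent of DMSO control. Signal came from in-cell immunodetection with infrared secondaries after 3 h compound exposure of KRas G12C NCI-H358 cells at 0.5% DMSO.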

Where [3] appears, read: normalized percent of control, tested at 5 μM concentration for 3 hours.
The mark [4] stands for this setting: NCI-H358, 3 h, pERK(Thr202/Tyr204) normalized with GAPDH, NCI-H358 cells, 3 hours, read-out: IC50.
The mark [5] stands for this setting: pERK(Thr202/Tyr204) normalized with GAPDH, NCI-H358 cells, 3 hours, read-out: IC50.

Like-named read-outs stand apart in the source and are kept apart here.

In general, IC50 refers to the concentration that inhibits the measured activity by half. Regarding `C=CC(=O)N1CCN(c2nc(OC[C@H]3CCCN3C)nc3c2CCN(c2c(C(F)(F)F)ccc4[nH]ncc24)C3)CC1CC#N` (stereo partly drawn) [Example 243, 2-[4-[2-[[(2R)-1-methylpyrrolidin-2-yl]methoxy]-7-[5-(trifluoromethyl)-1H-indazol-4-yl]-6,8-dihydro-5H-pyrido[3,4-d]pyrimidin-4-yl]-1-prop-2-enoyl-piperazin-2-yl]acetonitrile], in assay [1] (setting [3]), the POC result is “C (“C”>50% POC)”. Also, in assay [2] (setting [4]), the IC50 fell in the range of 0.1 to 1000 nM.

As to `C=CC(=O)N1CCN(c2nc(OC[C@@H]3CCCN3C)nc3c2CCN(c2cccc4ccc(C)cc24)C3)CC1CC#N` (stereo partly drawn) [Example 245, 2-[4-[7-(7-methyl-1-naphthyl)-2-[[(2S)-1-methylpyrrolidin-2-yl]methoxy]-6,8-dihydro-5H-pyrido[3,4-d]pyrimidin-4-yl]-1-prop-2-enoyl-piperazin-2-yl]acetonitrile], in assay [1] (setting [3]), the POC result is on record as “C (“C”>50% POC)”. Also, the IC50 in assay [2] (setting [5]) was in the range of 0.1 to 1000 nM.

In the case of `C=CC(=O)N1CCN(c2nc(OC[C@@H]3CCCN3C)nc3c2CCN(c2ccc(F)c4ccccc24)C3)CC1CC#N` (stereo partly drawn) [Example 246, 2-[4-[7-(4-fluoro-1-naphthyl)-2-[[(2S)-1-methylpyrrolidin-2-yl]methoxy]-6,8-dihydro-5H-pyrido[3,4-d]pyrimidin-4-yl]-1-prop-2-enoyl-piperazin-2-yl]acetonitrile], the POC entry in assay [1] (setting [3]) was “C (“C”>50% POC)”. For the same compound, in assay [2] (setting [4]), the IC50 lay within 0.1 to 1000 nM.

For the compound `C=CC(=O)N1CCN(c2nc(OC[C@@H]3CCCN3C)nc3c2CCN(c2cccc4cccnc24)C3)CC1CC#N` (stereo partly drawn) [Example 247, 2-(1-acryloyl-4-(2-(((S)-1-methylpyrrolidin-2-yl)methoxy)-7-(quinolin-8-yl)-5,6,7,8-tetrahydropyrido[3,4-d]pyrimidin-4-yl)piperazin-2-yl)acetonitrile], the POC result in assay [1] (setting [3]) was “C (“C”>50% POC)”. Also, the IC50 in assay [2] (setting [4]) was more than 1000 nM.

As for `C=CC(=O)N1CCN(c2nc(OC[C@@H]3CCCN3C)nc3c2CCN(c2c(C(C)C)ccc4[nH]ncc24)C3)CC1` [Example 248, (S)-1-(4-(7-(5-isopropyl-1H-indazol-4-yl)-2-((1-methylpyrrolidin-2-yl)methoxy)-5,6,7,8-tetrahydropyrido[3,4-d]pyrimidin-4-yl)piperazin-1-yl)prop-2-en-1-one], the POC result in assay [1] (5 µM) was “C (key: “A”≤25% POC; “B”>25% POC−≤50% POC; “C”>50% POC)”. The compound further returned an IC50 in assay [2] (NCI-H358, 3 h) of more than 1000 nM.

For `C=CC(=O)N1CCN(c2nc(OC[C@@H]3CCCN3C)nc3c2CCN(c2c(F)c(O)cc4ccccc24)C3)CC1` [Example 249, 1-[4-[7-(2-fluoro-3-hydroxy-1-naphthyl)-2-[[(2S)-1-methylpyrrolidin-2-yl]methoxy]-6,8-dihydro-5H-pyrido[3,4-d]pyrimidin-4-yl]piperazin-1-yl]prop-2-en-1-one], in assay [1] (setting [3]), the POC result was “C (“C”>50% POC)”. Besides, the IC50 in assay [2] (setting [5]) lay within 0.1 to 1000 nM.

As to `C=CC(=O)N1CCN(c2nc(OC[C@@H]3CCCN3C)nc3c2CCN(c2c(Cl)ccc4[nH]ncc24)C3)CC1` [Example 250, 1-[4-[7-(5-chloro-1H-indazol-4-yl)-2-[[(2S)-1-methylpyrrolidin-2-yl]methoxy]-6,8-dihydro-5H-pyrido[3,4-d]pyrimidin-4-yl]piperazin-1-yl]prop-2-en-1-one], in assay [1] (setting [3]), the POC result is given as “C (“C”>50% POC)”. Further, the IC50 in assay [2] (setting [4]) is more than 1000 nM.

On to `C=CC(=O)N1CCN(c2nc(OC[C@@H]3CCCN3C(C)C)nc3c2CCN(c2cccc4ccccc24)C3)CC1CC#N` (stereo partly drawn) [Example 252, 2-[4-[2-[[(2S)-1-isopropylpyrrolidin-2-yl]methoxy]-7-(1-naphthyl)-6,8-dihydro-5H-pyrido[3,4-d]pyrimidin-4-yl]-1-prop-2-enoyl-piperazin-2-yl]acetonitrile], for which, in assay [1] (setting [3]), the POC result was “C (“C”>50% POC)”. Also, the IC50 in assay [2] (setting [5]) lay in the range of 0.1 to 1000 nM.

As for `C=CC(=O)N1CCN(c2nc(OC[C@@H]3CCCN3C)nc3c2CCN(c2cccc4ccc(Cl)cc24)C3)CC1CC#N` (stereo partly drawn) [Example 253, 2-(1-acryloyl-4-(7-(7-chloronaphthalen-1-yl)-2-(((S)-1-methylpyrrolidin-2-yl)methoxy)-5,6,7,8-tetrahydropyrido[3,4-d]pyrimidin-4-yl)piperazin-2-yl)acetonitrile], in assay [1] (setting [3]), the POC entry is “C (“C”>50% POC)”. In addition, the IC50 in assay [2] (setting [4]) lay within 0.1 to 1000 nM.

Turning to `C=CC(=O)N1CCN(c2nc(OC[C@@H]3CCCN3C)nc3c2CCN(c2cccc4c(F)cccc24)C3)CC1CC#N` (stereo partly drawn) [Example 254, 2-[4-[7-(5-fluoro-1-naphthyl)-2-[[(2S)-1-methylpyrrolidin-2-yl]methoxy]-6,8-dihydro-5H-pyrido[3,4-d]pyrimidin-4-yl]-1-prop-2-enoyl-piperazin-2-yl]acetonitrile], the POC result in assay [1] (setting [3]) is reported as “C (“C”>50% POC)”. The IC50 in assay [2] (setting [4]) lay within 0.1 to 1000 nM.

As for `C=CC(=O)N1CCN(c2nc(OC[C@@H]3CCCN3C)nc3c2CCN(c2cccc4ccc(OC)cc24)C3)CC1CC#N` (stereo partly drawn) [Example 255, 2-[4-[7-(7-methoxy-1-naphthyl)-2-[[(2S)-1-methylpyrrolidin-2-yl]methoxy]-6,8-dihydro-5H-pyrido[3,4-d]pyrimidin-4-yl]-1-prop-2-enoyl-piperazin-2-yl]acetonitrile], the POC entry in assay [1] (setting [3]) is listed as “A (“A”≤25% POC)”. In assay [2] (setting [4]), the IC50 was more than 1000 nM.

For the compound `C=CC(=O)N1CCN(c2nc(OC[C@@H]3CCCN3C)nc3c2CCN(c2cccc4ccccc24)C3)CC1COC` (stereo partly drawn) [Example 256, 1-(2-(methoxymethyl)-4-(2-(((S)-1-methylpyrrolidin-2-yl)methoxy)-7-(naphthalen-1-yl)-5,6,7,8-tetrahydropyrido[3,4-d]pyrimidin-4-yl)piperazin-1-yl)prop-2-en-1-one], the POC result in assay [1] (setting [3]) was “C (“C”>50% POC)”. Also, in assay [2] (setting [4]), the half-inhibitory concentration (IC50) was more than 1000 nM.

`C=CC(=O)N1CCN(c2nc(OC[C@@H]3CCCN3C)nc3c2CCN(c2nccc4ccccc24)C3)CC1CC#N` (stereo partly drawn) [Example 258, 2-[4-[7-(1-isoquinolyl)-2-[[(2S)-1-methylpyrrolidin-2-yl]methoxy]-6,8-dihydro-5H-pyrido[3,4-d]pyrimidin-4-yl]-1-prop-2-enoyl-piperazin-2-yl]acetonitrile]: the POC entry in assay [1] (setting [3]) is given as “C (“C”>50% POC)”. For the same compound, the IC50 in assay [2] (setting [4]) is more than 1000 nM.

Take `C=CC(=O)N1CCN(c2nc(OC[C@@H]3CCCN3C)nc3c2CCN(c2cccc4cc(F)ccc24)C3)CC1CC#N` (stereo partly drawn) [Example 259, 2-[4-[7-(6-fluoro-1-naphthyl)-2-[[(2S)-1-methylpyrrolidin-2-yl]methoxy]-6,8-dihydro-5H-pyrido[3,4-d]pyrimidin-4-yl]-1-prop-2-enoyl-piperazin-2 yl]acetonitrile]: the POC entry in assay [1] (setting [3]) is given as “C (“C”>50% POC)”. For the same compound, in assay [2] (setting [4]), the IC50 lay in the range of 0.1 to 1000 nM.

Consider `C=CC(=O)N1CCN(c2nc(OC[C@@H]3CCCN3C)nc3c2CCN(c2cncc4ccccc24)C3)CC1CC#N` (stereo partly drawn) [Example 260, 2-[4-[7-(4-isoquinolyl)-2-[[(2S)-1-methylpyrrolidin-2-yl]methoxy]-6,8-dihydro-5H-pyrido[3,4-d]pyrimidin-4-yl]-1-prop-2-enoyl-piperazin-2-yl]acetonitrile], for which the POC entry in assay [1] (setting [3]) was “C (“C”>50% POC)”. In addition, the IC50 in assay [2] (setting [4]) was in the range of 0.1 to 1000 nM.

In the case of `C=C(C)C(=O)N1CCN(c2nc(OC[C@@H]3CCCN3C)nc3c2CCN(c2cccc4ccccc24)C3)CC1CC#N` (stereo partly drawn) [Example 261, 2-[1-(2-methylprop-2-enoyl)-4-[2-[[(2S)-1-methylpyrrolidin-2-yl]methoxy]-7-(1-naphthyl)-6,8-dihydro-5H-pyrido[3,4-d]pyrimidin-4-yl]piperazin-2-yl]acetonitrile], the POC entry in assay [1] (setting [3]) is listed as “A (“A”≤25% POC)”. In addition, the IC50 in assay [2] (setting [4]) was more than 1000 nM.

With `C=CC(=O)N1CCN(c2nc(OC[C@@H]3CCCN3C)nc3c2CCN(c2cccc4cnccc24)C3)CC1CC#N` (stereo partly drawn) [Example 262, 2-[4-[7-(5-isoquinolyl)-2-[[(2S)-1-methylpyrrolidin-2-yl]methoxy]-6,8-dihydro-5H-1-pyrido[3,4-d]pyrimidin-4-yl]-1-prop-2-enoyl-piperazin-2-yl]acetonitrile], the POC result in assay [1] (setting [3]) was “A (“A”≤25% POC)”. Further, the IC50 in assay [2] (setting [4]) was more than 1000 nM.

Take `C/C=C/C(=O)N1CCN(c2nc(OC[C@@H]3CCCN3C)nc3c2CCN(c2cccc4ccccc24)C3)CC1CC#N` (stereo partly drawn) [Example 263, 2-[1-[(E)-but-2-enoyl]-4-[2-[[(2S)-1-methylpyrrolidin-2-yl]methoxy]-7-(1-naphthyl)-6,8-dihydro-5H-pyrido[3,4-d]pyrimidin-4-yl]piperazin-2-yl]acetonitrile]: the POC entry in assay [1] (setting [3]) is reported as “C (“C”>50% POC)”. Besides, the IC50 in assay [2] (setting [4]) is 0.1 to 1000 nM.

As to `C=CC(=O)N1CCN(c2nc(OC[C@@H]3CCCN3C)nc3c2CCN(c2cccc4ncccc24)C3)CC1CC#N` (stereo partly drawn) [Example 264, 2-[4-[2-[[(2S)-1-methylpyrrolidin-2-yl]methoxy]-7-(5-quinolyl)-6,8-dihydro-5H-pyrido[3,4-d]pyrimidin-4-yl]-1-prop-2-enoyl-piperazin-2-yl]acetonitrile], in assay [1] (setting [3]), the POC result was “C (“C”>50% POC)”. For the same compound, the IC50 in assay [2] (setting [4]) was more than 1000 nM.

In the case of `C=CC(=O)N1CCN(c2nc(OC[C@@H]3CCCN3C)nc3c2CCN(c2cccc(C)c2C(F)(F)F)C3)CC1CC#N` (stereo partly drawn) [Example 265, 2-(1-acryloyl-4-(7-(3-methyl-2-(trifluoromethyl)phenyl)-2-(((S)-1-methylpyrrolidin-2-yl)methoxy)-5,6,7,8-tetrahydropyrido[3,4-d]pyrimidin-4-yl)piperazin-2-yl)acetonitrile], in assay [1] (setting [3]), the POC result is listed as “C (“C”>50% POC)”. Besides, in assay [2] (setting [4]), the IC50 fell in the range of 0.1 to 1000 nM.
